According to patent publication US5338736A, “Angiotensin II receptor blocking 2,3,6-substituted quinazolinones” (American Cyanamid Company, priority 1993, dated 1994):
Values joined by “and” are separate entries in the source; they are usually repeats but may differ in a detail not shown here. Equal values may be shown once.

Test system: angiotensin II vasopressor response
Experiment: AII challenge: inhibition of angiotensin II vasopressor response in conscious SHR
Assay type: in vivo, rat (Male Okamoto-Aoki SHR)
Details: 3 mg/kg iv; for % Inhibition / Average Change: n = 2
Description: By administering a compound of this invention to a rat, and then challenging with angiotensin II, a blockage of the vasopressor response is realized.
Conscious Male Okamoto-Aoki SHR, 16-20 weeks old, weighing approximately 330 g are purchased from Charles River Labs (Wilmington, Mass.). Conscious rats are restrained in a supine position with elastic tape. The area at the base of the tail is locally anesthetized by subcutaneous infiltration with 2% procaine. The ventral caudal artery and vein are isolated, and a cannula made of polyethylene (PE) 10-20 tubing (fused together by heat) is passed into the lower abdominal aorta and vena cava, respectively. The cannula is secured, heparinized (1,000 I.U./ml), sealed and the wound is closed. The animals are placed in plastic restraining cages in an upright position. The cannula is attached to a Statham P23Db pressure transducer, and pulsatile blood pressure is recorded to 10-15 minutes with a Gould Brush recorder. (Chan et al., (Drug Development Res., 18:75-94, 1989).
Angiotensin II (human sequence, Sigma Chem. Co., St. Louis, Mo.) of 0.05 and 0.1 μg/kg i.v. is injected into all rats (predosing response). Then a test compound, vehicle or a known angiotensin II antagonist is administered i.v., i.p. or orally to each set of rats. The two doses of angiotensin II are given to each rat again at 30. 60. 90. 120. 180. 240 and 300 minutes post dosing the compound or vehicle. The vasopressor response of angiotensin II is measured for the increase in systolic blood pressure in mmHg. The percentage of antagonism or blockade of the vasopressor response of angiotensin II by a compound is calculated using the vasopressor response (increase in systolic blood pressure) of angiotensin II of each rat predosing the compound as 100%. A compound is considered active if at 30 mg/kg i.v. it antagonized at least 50% of the response.

[1] = AII 0.05 mcg/kg, 30 min post dose
[2] = AII 0.05 mcg/kg, 60 min post dose
[3] = AII 0.05 mcg/kg, 90 min post dose
[4] = AII 0.05 mcg/kg, 120 min post dose
[5] = AII 0.05 mcg/kg, 180 min post dose
[6] = AII 0.05 mcg/kg, 240 min post dose
[7] = AII 0.05 mcg/kg, 300 min post dose
[8] = AII 0.1 mcg/kg, 30 min post dose
[9] = AII 0.1 mcg/kg, 60 min post dose
[10] = AII 0.1 mcg/kg, 90 min post dose
[11] = AII 0.1 mcg/kg, 120 min post dose
[12] = AII 0.1 mcg/kg, 180 min post dose
[13] = AII 0.1 mcg/kg, 240 min post dose
[14] = AII 0.1 mcg/kg, 300 min post dose

SMILES: CCCCc1nc2ccc(C3CCC4CCCCC4O3)cc2c(=O)n1Cc1ccc(-c2ccccc2-c2nn[nH]n2)cc1 (stereo not shown) [Example 11]
- Change (response to AII, individual rat) [1]: 15 mmHg and 20 mmHg
- % Inhibition [1]: 59%
- Average Change [1]: 17.5 mmHg
- Change (response to AII, individual rat) [2]: 30 mmHg and 15 mmHg
- % Inhibition [2]: 47%
- Average Change [2]: 22.5 mmHg
- Change (response to AII, individual rat) [3]: 30 mmHg and 10 mmHg
- % Inhibition [3]: 53%
- Average Change [3]: 20 mmHg
- Change (response to AII, individual rat) [4]: 10 mmHg
- % Inhibition [4]: 76%
- Average Change [4]: 10 mmHg
- Change (response to AII, individual rat) [5]: 30 mmHg and 35 mmHg
- % Inhibition [5]: 24%
- Average Change [5]: 32.5 mmHg
- Change (response to AII, individual rat) [6]: 20 mmHg and 7 mmHg
- % Inhibition [6]: 68%
- Average Change [6]: 13.5 mmHg
- Change (response to AII, individual rat) [7]: 30 mmHg and 15 mmHg
- % Inhibition [7]: 47%
- Average Change [7]: 22.5 mmHg
- Change (response to AII, individual rat) [8]: 10 mmHg and 30 mmHg
- % Inhibition [8]: 65%
- Average Change [8]: 20 mmHg
- Change (response to AII, individual rat) [9]: 20 mmHg and 10 mmHg
- % Inhibition [9]: 74%
- Average Change [9]: 15 mmHg
- Change (response to AII, individual rat) [10]: 30 mmHg and 25 mmHg
- % Inhibition [10]: 52%
- Average Change [10]: 27.5 mmHg
- Change (response to AII, individual rat) [11]: 15 mmHg and 25 mmHg
- % Inhibition [11]: 65%
- Average Change [11]: 20 mmHg
- Change (response to AII, individual rat) [12]: 35 mmHg and 20 mmHg
- % Inhibition [12]: 52%
- Average Change [12]: 27.5 mmHg
- Change (response to AII, individual rat) [13]: 35 mmHg and 30 mmHg
- % Inhibition [13]: 43%
- Average Change [13]: 32.5 mmHg
- Change (response to AII, individual rat) [14]: 35 mmHg and 30 mmHg
- % Inhibition [14]: 43%
- Average Change [14]: 32.5 mmHg
- Response After AII (individual rat) (after AII 0.05 mcg/kg, 30 min post dose): 260 mmHg and 265 mmHg
- Response After AII (individual rat) (after AII 0.05 mcg/kg, 60 min post dose): 260 mmHg and 255 mmHg
- Response After AII (individual rat) (after AII 0.05 mcg/kg, 90 min post dose): 265 mmHg and 245 mmHg
- Response After AII (individual rat) (after AII 0.05 mcg/kg, 120 min post dose): 255 mmHg and 240 mmHg
- Response After AII (individual rat) (after AII 0.05 mcg/kg, 180 min post dose): 265 mmHg and 260 mmHg
- Response After AII (individual rat) (after AII 0.05 mcg/kg, 240 min post dose): 250 mmHg and 240 mmHg
- Response After AII (individual rat) (after AII 0.05 mcg/kg, 300 min post dose): 275 mmHg and 255 mmHg
- Response After AII (individual rat) (after AII 0.1 mcg/kg, 30 min post dose): 260 mmHg and 280 mmHg
- Response After AII (individual rat) (after AII 0.1 mcg/kg, 60 min post dose): 260 mmHg and 255 mmHg
- Response After AII (individual rat) (after AII 0.1 mcg/kg, 90 min post dose): 285 mmHg and 260 mmHg
- Response After AII (individual rat) (after AII 0.1 mcg/kg, 120 min post dose): 255 mmHg and 250 mmHg
- Response After AII (individual rat) (after AII 0.1 mcg/kg, 180 min post dose): 270 mmHg and 255 mmHg
- Response After AII (individual rat) (after AII 0.1 mcg/kg, 240 min post dose): 285 mmHg and 255 mmHg
- Response After AII (individual rat) (after AII 0.1 mcg/kg, 300 min post dose): 275 mmHg
- Control Before AII (individual rat) (before AII 0.05 mcg/kg, 30 min post dose): 245 mmHg
- Control Before AII (individual rat) (before AII 0.05 mcg/kg, 60 min post dose): 230 mmHg and 240 mmHg
- Control Before AII (individual rat) (before AII 0.05 mcg/kg, 90 min post dose): 235 mmHg
- Control Before AII (individual rat) (before AII 0.05 mcg/kg, 120 min post dose): 245 mmHg and 230 mmHg
- Control Before AII (individual rat) (before AII 0.05 mcg/kg, 180 min post dose): 235 mmHg and 225 mmHg
- Control Before AII (individual rat) (before AII 0.05 mcg/kg, 240 min post dose): 230 mmHg and 233 mmHg
- Control Before AII (individual rat) (before AII 0.05 mcg/kg, 300 min post dose): 245 mmHg and 240 mmHg
- Control Before AII (individual rat) (before AII 0.1 mcg/kg, 30 min post dose): 250 mmHg
- Control Before AII (individual rat) (before AII 0.1 mcg/kg, 60 min post dose): 240 mmHg and 245 mmHg
- Control Before AII (individual rat) (before AII 0.1 mcg/kg, 90 min post dose): 255 mmHg and 235 mmHg
- Control Before AII (individual rat) (before AII 0.1 mcg/kg, 120 min post dose): 240 mmHg and 225 mmHg
- Control Before AII (individual rat) (before AII 0.1 mcg/kg, 180 min post dose): 235 mmHg
- Control Before AII (individual rat) (before AII 0.1 mcg/kg, 240 min post dose): 250 mmHg and 225 mmHg
- Control Before AII (individual rat) (before AII 0.1 mcg/kg, 300 min post dose): 240 mmHg and 245 mmHg
